Reference: ChEMBL document CHEMBL3351685, “Synthesis and quantitative structure-activity relationship (QSAR) analysis of some novel oxadiazolo[3,4-d]pyrimidine nucleosides derivatives as antiviral agents” (Bioorg Med Chem Lett, 2015)
pEC50: −log10 of the molar value. Active and inactive are the calls of the source. The rule behind the calls is not given here.

Columns and labels:
[1] = tested on: Vesicular stomatitis virus; experiment: Antiviral activity against vesicular stomatitis virus infected in human WISH cells; type: functional; details: for pEC50: read-out: ED50 (the source's name)
[2] = tested on: WISH; experiment: Cytotoxicity against human WISH cells; type: cell-based
[3] = Selectivity index, ratio of toxic concentration for human WISH cells to ED50 for vesicular stomatitis virus infected in human WISH cells; type: toxicity, cell-based; details: read-out: Selectivity Index

Row | SMILES | pEC50 [1] | Activity [2] [µmol/L] | selectivity ratio [3] | ED50 [1]
1 | CCn1c(=O)c2c(no[n+]2[O-])n([C@@H]2O[C@H](COC(C)=O)[C@H](OC(C)=O)[C@H]2OC(C)=O)c1=O | 2.98 | 356 |  | 
2 | Nc1nc2c(ncn2COCCO)c(=O)[nH]1 [ACYCLOVIR] | 2.85 | 3414 | 2.4 | 
3 | CC(=O)OC[C@H]1O[C@@H](n2c(=O)n(C)c(=O)c3c2no[n+]3[O-])[C@H](OC(C)=O)[C@H]1OC(C)=O |  | 477 |  | inactive
4 | Cn1c(=O)c2c(no[n+]2[O-])n([C@@H]2O[C@H](COCc3ccccc3)[C@@H](OCc3ccccc3)[C@@H]2F)c1=O | 2.82 | 10 |  | 
5 | O=c1[nH]c(=O)n(COC(CO)CO)c2no[n+]([O-])c12 | 3.26 | 2279 |  | 
6 | O=c1[nH]c(=O)n([C@@H]2O[C@H](CO)[C@@H](O)[C@H]2O)c2no[n+]([O-])c12 | 4.11 | 2095 | 26.9 | 
7 | Cn1c(=O)c2c(no[n+]2[O-])n([C@@H]2O[C@H](COCc3ccccc3)[C@@H](OCc3ccccc3)[C@H]2OCc2ccccc2)c1=O | 3.33 | 1055 |  | 
8 | CCn1c(=O)c2c(no[n+]2[O-])n(COCCOC(C)=O)c1=O |  | 408 |  | inactive
9 | CC(=O)OC[C@H]1O[C@@H](n2c(=O)[nH]c(=O)c3c2no[n+]3[O-])[C@H](OC(C)=O)[C@@H](OC(C)=O)[C@@H]1OC(C)=O |  | 1300 |  | inactive
10 | CC(=O)OC[C@@H]1O[C@@H](n2c(=O)[nH]c(=O)c3c2no[n+]3[O-])[C@H](OC(C)=O)[C@H]1OC(C)=O | 3.81 | 380 |  | 
11 | CCn1c(=O)c2c(no[n+]2[O-])n([C@@H]2O[C@H](COC(C)=O)[C@@H](OC(C)=O)[C@H](OC(C)=O)[C@H]2OC(C)=O)c1=O | 2.92 | 1345 |  | 
12 | CC(=O)OC[C@H]1O[C@@H](n2c(=O)[nH]c(=O)c3c2no[n+]3[O-])[C@H](OC(C)=O)[C@@H]1OC(C)=O | 3.46 | 1459 |  | 
13 | CC(=O)OC[C@H]1O[C@H](n2c(=O)[nH]c(=O)c3c2no[n+]3[O-])[C@@H](OC(C)=O)[C@@H]1OC(C)=O | 3.16 | 398 |  | 
14 | CCn1c(=O)c2c(no[n+]2[O-])n(COC(COC(C)=O)COC(C)=O)c1=O | 3.19 | 1475 |  | 
15 | CCn1c(=O)c2c(no[n+]2[O-])n([C@@H]2O[C@H](COC(C)=O)[C@@H](OC(C)=O)[C@H]2OC(C)=O)c1=O | 2.91 | 377 |  | 
16 | CC(=O)OCCOCn1c(=O)[nH]c(=O)c2c1no[n+]2[O-] | 3.19 | 2083 |  | 
17 | CCn1c(=O)c2c(no[n+]2[O-])n([C@@H]2O[C@H](COCc3ccccc3)[C@@H](OCc3ccccc3)[C@H]2OCc2ccccc2)c1=O | 3.30 | 1026 |  | 
18 | CCn1c(=O)c2c(no[n+]2[O-])n([C@H]2O[C@H](COC(C)=O)[C@@H](OC(C)=O)[C@@H]2OC(C)=O)c1=O | 3.24 | 1411 |  | 
19 | CCn1c(=O)c2c(no[n+]2[O-])n([C@@H]2O[C@@H](COC(C)=O)[C@H](OC(C)=O)[C@H]2OC(C)=O)c1=O |  | 20 |  | inactive
20 | CC(=O)OC[C@H]1O[C@@H](n2c(=O)n(C)c(=O)c3c2no[n+]3[O-])[C@H](OC(C)=O)[C@@H]1OC(C)=O | 3.46 | 1460 |  | 
21 | CC(=O)OC[C@H]1O[C@@H](n2c(=O)[nH]c(=O)c3c2no[n+]3[O-])[C@H](OC(C)=O)[C@H]1OC(C)=O |  | 387 |  | inactive
22 | O=c1[nH]cnc2c1ncn2[C@H]1CC[C@@H](CO)O1 [DIDANOSINE] | 3.10 | 2646 | 3.34 | 
23 | CC(=O)OC[C@H]1O[C@H](n2c(=O)n(C)c(=O)c3c2no[n+]3[O-])[C@@H](OC(C)=O)[C@@H]1OC(C)=O |  | 378 |  | inactive
24 | O=c1[nH]c(=O)n([C@@H]2O[C@H](COCc3ccccc3)[C@@H](OCc3ccccc3)[C@H]2OCc2ccccc2)c2no[n+]([O-])c12 | 3.13 | 650 |  | 
25 | CC(=O)OC[C@@H]1O[C@@H](n2c(=O)n(C)c(=O)c3c2no[n+]3[O-])[C@H](OC(C)=O)[C@H]1OC(C)=O | 3.87 | 300 |  | 
26 | CC(=O)OCCOCn1c(=O)n(C)c(=O)c2c1no[n+]2[O-] | 3.19 | 2077 |  | 
27 | O=c1[nH]c(=O)n(COCCO)c2no[n+]([O-])c12 | 3.20 | 2561 |  | 
